This note sets out measurements from ChEMBL document CHEMBL4184314, “Synthesis of new 4-aryloxy-N-arylanilines and their inhibitory activities against succinate-cytochrome c reductase” (Bioorg Med Chem Lett, 2018).

A short description of test [1]: Inhibition of porcine succinate-cytochrome c reductase using succinate and cytochrome c as substrate by spectrophotometric analysis. Set-up: species or system Sus scrofa.
Test [2] is filed under the species Sus scrofa. The experiment in a line: Inhibition of porcine succinate-cytochrome c reductase at 10 uM using succinate and cytochrome c as substrate by spectrophotometric analysis relative to control.
The species entered for test [3] is Sus scrofa. The experiment in a line: Inhibition of porcine succinate-cytochrome c reductase complex 2 at 10 uM using succinate and dichlorophenolindophenol as substrate by spectrophotometric analysis relative to control.
The species entered for test [4] is Sus scrofa. The experiment in a line: Inhibition of porcine succinate-cytochrome c reductase complex 3 at 10 uM using decylubiquinol and cytochrome c as substrate by spectrophotometric analysis relative to control.

In the case of `Cc1ccc(Nc2ccc(Oc3ccccc3)cc2)cc1`, in test [1], the concentration for half-maximal inhibition (IC50) was more than 10 µM.

As to `Brc1cc(Nc2ccccc2)ccc1Oc1ccccc1`, the IC50 in test [1] was found to be 0.323 µM.

For `N#Cc1ccccc1Oc1ccc(Nc2ccccc2)cc1`, the half-maximal inhibitory concentration (IC50) in test [1] is more than 10 µM.

For the molecule `Clc1ccc(Nc2ccc(Oc3ccccc3)cc2)cc1`, in test [1], the IC50 worked out at 0.464 µM.

The molecule `FC(F)(F)c1ccc(Nc2ccc(Oc3ccccc3)cc2)cc1` had a 50% inhibitory concentration (IC50) in test [1] of 0.201 µM.

In test [1], `COc1ccc(Oc2ccc(Nc3ccccc3)cc2)cc1` yielded a half-maximal inhibitory concentration (IC50) of more than 10 µM.

As to `c1ccc(COc2ccc(Oc3ccc(Nc4ccccc4)cc3)cc2)cc1`, in test [1], the IC50 was more than 10 µM.

The molecule `Clc1ccc(Oc2ccc(Nc3ccccc3)cc2Cl)c(Cl)c1` came in with an IC50 in test [1] of 0.043 µM.

Molecule `Brc1ccccc1Oc1ccc(Nc2ccccc2)cc1` displayed a half-maximal inhibitory concentration (IC50) in test [1] of more than 10 µM.

In test [1], `Fc1ccccc1Oc1ccc(Nc2ccccc2)cc1` came in with an IC50 of more than 10 µM.

`Fc1ccc(Nc2ccc(Oc3ccccc3)cc2)cc1` gave an IC50 in test [1] of more than 10 µM.

The molecule `FC(F)(F)c1cccc(Nc2ccc(Oc3ccccc3)cc2)c1` showed an IC50 in test [1] of 0.362 µM.

For the molecule `Fc1ccc(Br)cc1Oc1ccc(Nc2ccccc2)cc1`, the 50% inhibitory concentration (IC50) in test [1] was more than 10 µM.

`CC(C)CC(C)c1sccc1NC(=O)c1cn(C)nc1C(F)(F)F` (stereo not drawn) [PENTHIOPYRAD] yielded an IC50 in test [1] of 1.32 µM. In addition, the inhibition is 82% in the test filed under Sus scrofa [2], 90% in the test listed under Sus scrofa [3] and less than 10% in the test filed under Sus scrofa [4].

`Fc1cccc(Nc2ccc(Oc3ccccc3)cc2)c1`: in test [1], the IC50 amounted to 0.723 µM.

`Clc1ccc(Oc2ccc(Nc3ccccc3)cc2)c(Cl)c1`: the IC50 in test [1] is 0.172 µM.

Molecule `Cc1ccccc1Nc1ccc(Oc2ccccc2)cc1` yielded a half-inhibitory concentration (IC50) in test [1] of more than 10 µM.

In test [1], `Clc1ccc(Oc2c(Cl)cc(Nc3ccccc3)cc2Cl)c(Cl)c1` gave a half-maximal inhibitory concentration (IC50) of 0.041 µM.

`Clc1cccc(Nc2ccc(Oc3ccccc3)cc2)c1` came in with a half-maximal inhibitory concentration (IC50) in test [1] of more than 10 µM.

As to `Cc1cccc(Nc2ccc(Oc3ccccc3)cc2)c1`, the 50% inhibitory concentration (IC50) in test [1] was more than 10 µM.

Molecule `Clc1cc(Nc2ccccc2)cc(Cl)c1Oc1ccc2ccccc2c1` showed an IC50 in test [1] of 0.03 µM. Also, the inhibition came to 78% in the test filed under Sus scrofa [2], 42% in the test listed under Sus scrofa [3] and 15% in the test filed under Sus scrofa [4].

Take `Clc1cc(Cl)c(Oc2c(Cl)cc(Nc3ccccc3)cc2Cl)c(Cl)c1`: 0.021 µM corresponded to half-maximal inhibition in test [1] (IC50). Moreover, the values for the inhibition in the test listed under Sus scrofa [2], in the test listed under Sus scrofa [3] and in the test filed under Sus scrofa [4] were 89%, 37% and 13%, respectively.

For `CO/C=C(\C(=O)OC)c1ccccc1Oc1cc(Oc2ccccc2C#N)ncn1` [Azoxystrobin], inhibition in test [1] was half-maximal at 0.287 µM (IC50). Moreover, the figures for the inhibition in the test listed under Sus scrofa [2], in the test filed under Sus scrofa [3] and in the test listed under Sus scrofa [4] were 99%, 23% and 92%, respectively.

For `c1ccc(Nc2ccc(Oc3ccccc3)cc2)cc1`, in test [1], the IC50 is more than 10 µM.

For `Fc1cccc(Oc2ccc(Nc3ccccc3)cc2)c1F`, in test [1], the 50% inhibitory concentration (IC50) stood at 1.45 µM.

`CC(C)(C)c1ccc(Nc2ccc(Oc3ccccc3)cc2)cc1` yielded a half-maximal inhibitory concentration (IC50) in test [1] of more than 10 µM.
